These molecules were tested against α-glucosidase (assay: α-glucosidase inhibition assay (PNPG substrate, absorbance at 405 nm)). Settings: substrate PNPG 2.5 mM, enzyme 1.0 U/mL, PPBS pH 6.86, 37 °C, triplicate; read-out: α-Glucosidase inhibitory activity IC50.
Assay type: biochemical
Procedure: UV spectra were recorded on a UV-2401PC spectrometer (Shimadzu, Kyoto, Japan). Optical rotations were measured in methanol on JASCO P-1020 digital polarimeter (Jasco, Tokyo, Japan). IR spectra were scanned on a Bruker Tensor-27 Fourier transform infrared spectrometer with KBr pellets (Bruker, German). High-resolution (HR) ESI mass spectra data were measured on a Waters API QSTAR Pulsar spectrometer. 1D and 2D NMR spectra were obtained in pyridine-d5 on Bruker Ascend-400, 600 and 800 MHz NMR spectrometers with tetramethylsilane (TMS) as internal standard (Bruker, Zurich, Switzerland). Column chromatography (CC) was performed on macroporous resin (D-101, Tianjin, China), Lichroprep RP-18 (Merck, German), sephadex LH-20 (Pharmacia, USA), silica gel (200–300 mesh, Qingdao, China), and Semi-preparative HPLC was performed on an Agilent 1260 liquid chromatography system equipped with a ZORBAX SB-C18 column (5 μm, 9.4 × 250 mm, 3.0 mL/min) and a DAD detector. Fractions were detected by TLC, and spots were visualized by spraying with 10% H2SO4 in EtOH, followed by heating. α-glucosidase inhibitory activity was evaluated on the basis of the ability of the compounds to decrease glucosidase activity and then inhibit the breaking of glycosidic bonds in p-nitrophenyl-α-D-glucopyranoside (PNPG). Water was purchased from wahaha group co. LTD. Acetonitrile (chromatographic grade) was purchased from OCEANPAK (Sweden). Common organic solvents are industrial grade, used after re-distillation. PNPG was obtained from Sigma Chemical Co. (St. Louis, Mo, USA). α-glucosidase was purchased from Shanghai yuanye biotechnology Co., Ltd. Potassium phosphate buffer solution (PPBS) was obtained from Shanghai Yidian Scientific Instrument Co., Ltd. 96-well plates was purchased from Nest biotechnology co., LTD.
The α-glucosidase inhibition assay was performed according to the method adapted from the literature with slight modifications. α-glucosidase can cut glycosidic bonds in the PNPG to produce 4-nitrophenol (yellow), then measured its absorbance can determine the activity of enzyme. The test samples and ursolic acid (positive control) were dissolved in dimethylsulfoxide (DMSO), and then diluted with PPBS (pH 6.86) to the required concentration. The α-glucosidase (1.0 U/mL) and substrate (PNPG, 2.5 mM) were dissolved in PPBS. Sample wells included 60 μL of PPBS, 10 μL of test substances, 30 μL of enzyme stock solution, and incubated at 37 °C for 10 min. After the pre-incubation phase, 40 μL of PNPG solution was added and the mixture was incubated for another 20 min at 37 °C. Finally, 80 μL Na2CO3 (0.2 M) solution was added to the sample wells to stop the reaction. The absorbance of the reaction mixture was recorded at 405 nm using a microplate reader. All samples were measured in triplicate. The inhibition rate (%) was calculated by the following formula: Inhibition (%) = [1 − (Asample/Acontrol)] × 100.

COC(C=C(C)C)CC(C)C1CCC2(C)C3C=CC45OC(OC)C3(CCC12C)C4CCC(OC1OC(CO)C(O)C(O)C1O)C5(C)C [Compound 1, (19S,23R)-5β,19-epoxy-19,23-dimethoxycucurbita-6,24-dien-3β-ol 3-O-β-D-allopyranoside] and CO[C@H]1O[C@]23C=C[C@@H]4[C@@]1(CC[C@]1(C)[C@@H]([C@H](C)C[C@@H](C=C(C)C)OC)CC[C@@]41C)C2CC[C@H](O[C@@H]1O[C@H](CO)[C@@H](O)[C@@H](O)[C@H]1O)C3(C)C (stereo partly drawn) [Compound 3, (19S,23S)-5β,19-epoxy-19,23-dimethoxycucurbita-6,24-dien-3β-ol 3-O-β-D-allopyranoside] cannot be ordered by IC50: > 100 µM for the first, > 100 µM for the second.

Compared with COC(C=C(C)C)CC(C)C1CCC2(C)C3C=CC45OC(OC)C3(CCC12C)C4CCC(OC1OC(CO)C(O)C(O)C1O)C5(C)C [Compound 2, (19S,23R)-5β,19-epoxy-19,23-dimethoxycucurbita-6,24-dien-3β-ol 3-O-β-D-glucopyranoside], C=C(C)/C=C/C[C@@H](C)[C@H]1CC[C@@]2(C)[C@@H]3C=C[C@@]45O[C@@H](OC)[C@]3(CC[C@]12C)C4CC[C@H](O[C@@H]1O[C@H](CO)[C@@H](O)[C@@H](O)[C@H]1O)C5(C)C (stereo partly drawn) [Compound 6, (19R,23E)-5β,19-epoxy-19-methoxycucurbita-6,23,25-trien-3β-ol 3-O-β-D-allopyranoside] is higher in IC50: 63.3 ± 3.04 µM for the first, > 100 µM for the second. The first is the more potent here.

Going from CC(C)=CC=CC(C)C1CCC2(C)C3C=CC45OCC3(CCC12C)C4CCC(OC1OC(CO)C(O)C(O)C1O)C5(C)C [Compound 4, 5β,19-epoxy-cucurbita-6,22E,24-trien-3β-ol 3-O-β-D-allopyranoside] to C=C(C)/C=C/C[C@@H](C)[C@H]1CC[C@@]2(C)[C@@H]3C=C[C@@]45OC[C@]3(CC[C@]12C)[C@@H]4CC[C@H](O[C@@H]1O[C@H](CO)[C@@H](O)[C@H](O)[C@H]1O)C5(C)C [Compound 8, charantoside III], the IC50 falls from > 100 µM to 36.4 ± 3.03 µM. The second is the more potent here.

First: COC1OC23C=CC4C1(CCC1(C)C(C(C)CC=CC(C)(C)O)CCC41C)C2CCC(OC1OC(CO)C(O)C(O)C1O)C3(C)C [Compound 5, 19(S)-methoxy-5β,19-epoxycucurbita-6,23-dien-3β,25-diol 3-O-β-D-glucopyranoside]
Second: C=C(C)/C=C/C[C@@H](C)[C@H]1CC[C@@]2(C)[C@@H]3C=C[C@@]45O[C@@H](OC)[C@]3(CC[C@]12C)[C@@H]4CC[C@H](O[C@@H]1O[C@H](CO)[C@@H](O)[C@H](O)[C@H]1O)C5(C)C [Compound 7, charantoside I]
The IC50 of the first is 1.7-fold higher: 59.1 ± 4.67 µM for the first, 35.1 ± 4.15 µM for the second.

Going from COC(C)(C)/C=C/C[C@@H](C)[C@H]1CC[C@@]2(C)[C@@H]3[C@@H](O[C@@H]4O[C@H](CO)[C@@H](O)[C@H](O)[C@H]4O)C=C4C(CC[C@H](O)C4(C)C)[C@]3(C=O)CC[C@]12C (stereo partly shown) [Compound 9, momordicoside K] to CO[C@H]1C=C2C(CC[C@H](O[C@@H]3O[C@H](CO)[C@@H](O)[C@@H](O)[C@H]3O)C2(C)C)[C@]2(C=O)CC[C@]3(C)[C@@H]([C@H](C)C/C=C/C(C)(C)OC)CC[C@@]3(C)[C@H]12 (stereo partly drawn) [Compound 10, 7β,25-dimethoxycucurbita-5(6),23(E)-dien-19-al 3-O-β-D-allopyranoside], the IC50 rises from 28.4 ± 2.08 µM to > 100 µM.

— PMC7253571, “Cucurbitane-Type Triterpene Glycosides from Momordica charantia and Their α-Glucosidase Inhibitory Activities” (Natural Products and Bioprospecting, 2020)
